Source: patent publication US6608061B2, “Bisaryl compound and medicament for cancer treatment comprising the same” (Kyoma Hakko Kogyo Co., Ltd., priority 1997, dated 2003)
Where two headings read alike, the source gives them in different places.

What was measured:
HeLa S3 cells = test: Test for growth inhibition of HeLa S3 cells; type: cell-based; settings: HeLa S3 cells, 72 hours with test compound, Cell Proliferation Kit II, read-out: Cell growth inhibition (IC50)
Protocol: Test for Growth Inhibition of Hela S3 Cells
HeLa S3 cells prepared at 1×10^4 cells/ml in MEM culture medium containing 10% fetal bovine serum and 2 mM glutamine were added to each well of a 96-well microtiter plate (0.1 ml for each well). The cells were cultured at 37° C. in a CO2 incubator for 24 hours, and then 0.05 ml of test compound appropriately diluted with the above medium was added to each well, and then the mixture was cultured at 37° C. in a CO2 incubator for 72 hours. After the culture supernatant was removed, each well was washed with 0.1 ml of PBS buffer twice, and 0.1 ml of the aforementioned medium was added to each well again.
Cell Proliferation Kit II (Boehringer Mennheim) was used for measurement of cell number in each well. After a coloring reaction reagent was added, the plate was warmed to 37° C. in a CO2 incubator for 3 hours. Then, absorbances at 490 nm and 655 nm were measured by a microplate reader, and a value (difference of absorbance) was calculated for each well by subtracting the absorbance at […] from the absorbance at 490 nm. By comparing the differences of absorbance for cells without treatment and cells treated with a test compound at a known concentration, a concentration of test compound which inhibited the cell growth by 50% was calculated, and the value obtained was determined as IC50. The values of RNR inhibitory activity obtained in Example 8, and the values of cell growth inhibitory activity obtained in Example 9 are shown in the following tables (the compound numbers used in the tables correspond to the compound numbers shown in the aforementioned tables).

[1] = target: T1, human RNR (purified R1 and R2 subunits) (Homo sapiens, UniProt P23921+P31350); test: In vitro measurement of human RNR inhibitory activity (conversion of CDP to dCDP, HPLC); type: biochemical; settings: 100 μM CDP, 37° C., 30 minutes, read-out: RNR Inhibition (IC50)
T1 construct: made in house; host or cells: Escherichia coli BL21(λDE3)pLysS, plasmids pETR1 and pETR2 (pET3a backbone)
T1 sequence (P23921 1-792): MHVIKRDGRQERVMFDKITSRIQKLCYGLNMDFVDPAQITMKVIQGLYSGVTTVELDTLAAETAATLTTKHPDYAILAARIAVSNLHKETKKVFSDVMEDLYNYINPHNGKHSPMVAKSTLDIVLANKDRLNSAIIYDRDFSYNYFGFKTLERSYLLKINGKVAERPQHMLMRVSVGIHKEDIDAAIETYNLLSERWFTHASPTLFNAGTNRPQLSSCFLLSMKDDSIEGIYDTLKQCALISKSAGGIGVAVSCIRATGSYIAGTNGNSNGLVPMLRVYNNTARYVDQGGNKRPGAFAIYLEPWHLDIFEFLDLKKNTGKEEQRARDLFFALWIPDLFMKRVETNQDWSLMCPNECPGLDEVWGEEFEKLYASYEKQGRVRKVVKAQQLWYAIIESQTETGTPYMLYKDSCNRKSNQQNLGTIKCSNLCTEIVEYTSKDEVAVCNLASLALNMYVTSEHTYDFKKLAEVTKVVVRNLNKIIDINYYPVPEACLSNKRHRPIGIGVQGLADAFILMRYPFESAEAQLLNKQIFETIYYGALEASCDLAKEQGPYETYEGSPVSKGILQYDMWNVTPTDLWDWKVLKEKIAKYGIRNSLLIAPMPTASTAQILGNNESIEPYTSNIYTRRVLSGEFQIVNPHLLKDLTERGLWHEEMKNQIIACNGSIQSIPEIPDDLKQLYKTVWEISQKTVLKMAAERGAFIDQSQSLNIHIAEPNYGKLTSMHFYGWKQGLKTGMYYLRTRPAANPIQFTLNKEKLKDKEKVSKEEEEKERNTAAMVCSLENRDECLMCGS
T1 sequence (P31350 1-389): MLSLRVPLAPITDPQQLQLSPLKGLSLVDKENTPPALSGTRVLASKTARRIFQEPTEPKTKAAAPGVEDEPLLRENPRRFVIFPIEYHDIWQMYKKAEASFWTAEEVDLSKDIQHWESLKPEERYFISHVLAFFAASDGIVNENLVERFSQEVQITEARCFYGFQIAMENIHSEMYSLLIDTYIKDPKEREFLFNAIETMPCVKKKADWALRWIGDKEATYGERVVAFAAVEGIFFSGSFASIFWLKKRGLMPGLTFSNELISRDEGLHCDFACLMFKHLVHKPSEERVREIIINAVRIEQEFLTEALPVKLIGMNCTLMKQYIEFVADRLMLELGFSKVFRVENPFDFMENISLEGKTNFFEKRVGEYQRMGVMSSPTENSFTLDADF

SMILES	IC50 (HeLa S3 cells; Homo sapiens, HeLa S3, 72 h) [µM]	IC50 [1] [µM]	IC50 (HeLa S3 cells) [µM]
O=C(CN(CCSc1ccc(O)cc1)CCSc1ccc(O)cc1)NC(CO)CO [Compound 205]	7.32	1.19	–
Oc1ccc(SCc2ccccc2CSc2ccc(O)cc2)cc1 [Compound 161]	34.2	1.13	–
O=C(CN(CCSc1ccc(O)cc1)CCSc1ccc(O)cc1)N1CCC[C@H]1CO [Compound 206]	3.31	1.13	–
Oc1ccc(SCC(O)COCCOCC(O)CSc2ccc(O)cc2)cc1 (centres unmarked) [Compound 166]	31.2	3.09	–
O=C(CCN(CCSc1ccc(O)cc1)CCSc1ccc(O)cc1)N1CCOCC1 [Compound 107]	24.9	4.2	–
Oc1ccc(SCCN(CCSc2ccc(O)cc2)Cc2ccc3ccccc3n2)cc1 [Compound 101]	12.9	5.05	–
Oc1ccc(SCC#CCSc2ccc(O)cc2)cc1 [Compound 160]	20.1	0.95	–
O=C(c1cccnc1)N(CCSc1ccc(O)cc1)CCSc1ccc(O)cc1 [Compound 116]	3.02	4.13	–
CCN(CCSc1ccc(O)cc1)CCSc1ccc(O)cc1 [Compound 71]	3.94	1.23	–
CC1CCc2ccccc2N1C(=O)N(CCSc1ccc(O)cc1)CCSc1ccc(O)cc1 (centres unmarked) [Compound 58]	18.6	4.76	–
OC[C@H]1OC(N(CCSc2ccc(O)cc2)CCSc2ccc(O)cc2)[C@@H](O)[C@@H](O)[C@@H]1O (some centres unmarked) [Compound 214]	7.73	2.69	–
Oc1ccc(SCCNCCSc2ccc(O)cc2)cc1 [Compound 45]	5.64	3.64	–
Oc1ccc(SCCCSc2ccc(O)cc2)cc1 [Compound 134]	2.05	0.68	–
OCC(O)CN(CCSc1ccc(O)cc1)CCSc1ccc(O)cc1 (centres unmarked) [Compound 201]	4.29	2.49	–
Oc1ccc(SCCN(CCSc2ccc(O)cc2)Cc2cccc(O)c2)cc1 [Compound 93]	9.04	0.63	–
OC[C@@H]1OC(N(CCSc2ccc(O)cc2)CCSc2ccc(O)cc2)[C@@H](O)[C@H](O)[C@H]1O (some centres unmarked) [Compound 216]	11.5	3.63	–
Oc1ccc(SCCN(CCSc2ccc(O)cc2)CCC2OCCCO2)cc1 [Compound 194]	11.7	0.84	–
COCCN(CCSc1ccc(O)cc1)CCSc1ccc(O)cc1 [Compound 104]	1.74	2.11	–
CCN(CC)C(=O)CCN(CCSc1ccc(O)cc1)CCSc1ccc(O)cc1 [Compound 80]	1.43	0.74	–
CNCC(=O)Oc1ccc(SCCN(CCSc2ccc(OC(=O)CNC)cc2)CC(N)=O)cc1 [Compound 222]	0.36	0.43	–
Oc1ccc(SCCN(CCSc2ccc(O)cc2)CC2CC2)cc1 [Compound 75]	3.56	1.66	–
Oc1ccc(SCCOCCOCCOCCOCCSc2ccc(O)cc2)cc1 [Compound 172]	19.5	2.64	–
COCCOCCOCCN(CCSc1ccc(O)cc1)CCSc1ccc(O)cc1 [Compound 197]	4.06	3.24	–
CCC(=O)N(CCSc1ccc(O)cc1)CCSc1ccc(O)cc1 [Compound 113]	3.8	4.77	–
OCCOCCN(CCSc1ccc(O)cc1)CCSc1ccc(O)cc1 [Compound 199]	5.14	3.99	–
O=C(CN(CCSc1ccc(O)cc1)CCSc1ccc(O)cc1)N(CCO)CCO [Compound 208]	5.93	3.46	–

More lines, now with the values ahead:

IC50 (HeLa S3 cells; Homo sapiens, HeLa S3, 72 h) [µM]	IC50 [1] [µM]	IC50 (HeLa S3 cells) [µM]	SMILES
2.14	0.89	–	Oc1ccc(SCCN(CCSc2ccc(O)cc2)Cc2ccccc2O)cc1 [Compound 92]
5.81	5.73	–	NCCN(CCSc1ccc(O)cc1)CCSc1ccc(O)cc1 [Compound 59]
3.16	0.55	–	CS(=O)(=O)NCCN(CCSc1ccc(O)cc1)CCSc1ccc(O)cc1 [Compound 195]
6.5	4.38	–	O=C(CCSc1ccc(O)cc1)N(CCSc1ccc(O)cc1)CCSc1ccc(O)cc1 [Compound 52]
4.85	4.86	–	COCCOCCN(CCSc1ccc(O)cc1)CCSc1ccc(O)cc1 [Compound 198]
9.07	3.99	–	Oc1ccc(SCCN(CCSc2ccc(O)cc2)Cc2ccccc2F)cc1 [Compound 105]
16	5.45	–	N=C(N)N(CCSc1ccc(O)cc1)CCSc1ccc(O)cc1 [Compound 49]
> 101	4.82	–	O=C1N(CS(=O)(=O)CCSc2ccc(O)cc2)CCCN1CS(=O)(=O)CCSc1ccc(O)cc1 [Compound 7]
56	11.9	–	O=C(CSc1ccc(O)cc1)C(=O)CSc1ccc(O)cc1 [Compound 186]
3.56	0.88	–	OCCCN(CCSc1ccc(O)cc1)CCSc1ccc(O)cc1 [Compound 95]
45.6	3.5	–	Oc1ccc(SCSc2ccc(O)cc2)cc1 [Compound 132]
0.29	5.2	–	COCC(=O)Oc1ccc(SCCN(CCSc2ccc(OC(=O)COC)cc2)CC(N)=O)cc1 [Compound 220]
7.78	6.87	–	CS(=O)(=O)N(CCSc1ccc(O)cc1)CCSc1ccc(O)cc1 [Compound 118]
2.64	0.64	–	O=C(CCN(CCSc1ccc(O)cc1)CCSc1ccc(O)cc1)N1CCCCC1 [Compound 108]
–	–	0.4	NC(=O)CN(CCSc1ccc(O)cc1)CCSc1ccc(O)cc1 [Compound 224]
6.89	0.69	–	Oc1ccc(SCC=CCSc2ccc(O)cc2)cc1 [Compound 159]
6.38	2.03	–	Oc1ccc(SCCN(CCSc2ccc(O)cc2)Cc2ccco2)cc1 [Compound 90]
7.08	1.52	–	Oc1ccc(SCCN(CCSc2ccc(O)cc2)Cc2c[nH]cn2)cc1 [Compound 196]
10.4	0.42	–	CC1(C)OC(CSc2ccc(O)cc2)C(CSc2ccc(O)cc2)O1 (centres unmarked) [Compound 183]
5.45	2.27	–	Oc1ccc(SCC(O)CSc2ccc(O)cc2)cc1 [Compound 156]
2.82	5.91	–	O=C(CN(CCSc1ccc(O)cc1)CCSc1ccc(O)cc1)Nc1nccs1 [Compound 210]
2.72	1.69	–	O=C(c1ccncc1)N(CCSc1ccc(O)cc1)CCSc1ccc(O)cc1 [Compound 117]
14.4	0.73	–	O=C(N(CCSc1ccc(O)cc1)CCSc1ccc(O)cc1)N1CCCc2ccccc21 [Compound 57]
3.45	3.18	–	O=C(CN(CCSc1ccc(O)cc1)CCSc1ccc(O)cc1)N1CCCCC1 [Compound 203]
6.77	4.64	–	Oc1ccc(SCCN(CCSc2ccc(O)cc2)Cc2ccc(F)cc2)cc1 [Compound 106]
2.46	0.3	–	Oc1ccc(SCCC(O)CSc2ccc(O)cc2)cc1 (centres unmarked) [Compound 184]
–	–	0.55	NC(=O)CN(CCSc1ccc(O)cc1)CCSc1ccc(O)cc1 [Compound 225]
